{"source": "patent US10420772B2", "about": "“Animal and human anti-trypanosomonal and anti-leishmania agents” (Celgene Corporation, priority 2016, dated 2019)", "key": {"[1]": {"tested_on": "STIB 719/ILRAD 560 T. vivax (drug sensitive) strain", "test": "Ex vivo Alamar Blue 48 hrs drug sensitivity assay for T. vivax", "type": "cell-based", "details": "Trypanosoma vivax, STIB719; STIB 719/ILRAD 560 T. vivax bloodstream form, ex vivo, Alamar Blue, 48 hrs; read-out: T. vivax Act.", "protocol": "Ex vivo Alamar Blue48 hrs drug sensitivity assay for T. vivax. Compounds were tested ex vivo for chemotherapeutic efficacy against the STIB 719/ILRAD 560 T. vivax (drug sensitive) strain, using an Alamar Blue assay. Test compounds were prepared as 10 mg/mL DMSO stocks for each assay run. Compounds were assayed in at least three separate, independent test runs and an 11-point dilution curve was used to determine the IC50 values. Bloodstream form trypanosomes were propagated and harvested from a highly parasitaemic mouse (via cardiac puncture) and were incubated with test compounds for 45 hrs at 37° C. in a humidified atmosphere containing 5% CO2, supported in HMI media containing 20% bovine serum. Thereafter, 10 μL of Resazurin dye (12.5 mg in 100 mL of phosphate buffered saline, Sigma-Aldrich, Buchs, Switzerland) were added for an additional 3 hrs. Plates were then read using a fluorescent plate reader (Spectramax, Gemini XS, Bucher Biotec, Basel, Switzerland) using an excitation wavelength of 536 nm and an emission wavelength of 588 nm. Data points were averaged to generate sigmoidal dose-response curves and IC50 values were determined using Softmax Pro 5.2 software."}, "[2]": {"tested_on": "IL3000 T. congolense (drug sensitive) strain", "test": "In vitro Alamar Blue 72 hrs drug sensitivity assay for T. congolense", "type": "cell-based", "details": "Trypanosoma congolense, IL3000 T. congolense bloodstream form, read-out: T. congo Act.", "protocol": "In Vitro Alamar Blue 72 Hrs Drug Sensitivity Assay for T. Congolense. Compounds were tested in vitro for chemotherapeutic efficacy against the IL3000 T. congolense (drug sensitive) strain using an Alamar Blue assay. Test compounds were prepared as 10 mg/mL DMSO stocks for each assay run. Compounds were assayed in at least three separate, independent test runs and an 11-point dilution curve was used to determine the IC50 values. Bloodstream form trypanosomes were supported in HMI media containing 20% bovine serum and were incubated with test compounds for 69 hrs at 34° C. in a humidified atmosphere containing 5% CO2. Thereafter, 10 μL of Resazurin dye (12.5 mg in 100 mL of phosphate buffered saline, Sigma-Aldrich, Buchs, Switzerland) were added for an additional 3 hrs. Plates were then read using a fluorescent plate reader (Spectramax, Gemini XS, Bucher Biotec, Basel, Switzerland) using an excitation wavelength of 536 nm and an emission wavelength of 588 nm. Data points were averaged to generate sigmoidal dose-response curves and IC50 values were determined using Softmax Pro 5.2 software."}}, "data": [{"compound": "CC1(Nc2ncc3nc(Nc4cccc(Cl)c4)n([C@H]4CC[C@@H](CN)CC4)c3n2)CCC1", "note": "[A-2, 9-((1s,4s)-4-(aminomethyl)cyclohexyl)-N8-(3-chlorophenyl)-N2-(1-methylcyclobutyl)-9H-purine-2,8-diamine]", "values": [{"measurement": "IC50", "setting": "[1]", "result": "< 0.15", "unit": "µM"}, {"measurement": "IC50", "setting": "[2]", "result": "< 0.15", "unit": "µM"}]}, {"compound": "CCC(C)(C)Nc1ncc2nc(Nc3cccc(Cl)c3)n([C@H]3CC[C@@H](CN)CC3)c2n1", "note": "[A-3, 9-((1s,4s)-4-(aminomethyl)cyclohexyl)-N8-(3-chlorophenyl)-N2-tert-pentyl-9H-purine-2,8-diamine]", "values": [{"measurement": "IC50", "setting": "[1]", "result": "< 0.15", "unit": "µM"}, {"measurement": "IC50", "setting": "[2]", "result": "< 0.15", "unit": "µM"}]}, {"compound": "CC(C)(C)Nc1ncc2nc(Nc3ccccn3)n(C3CCC(CN)CC3)c2n1", "note": "(centres unmarked) [A-6, 9-((1s,4s)-4-(aminomethyl)cyclohexyl)-N2-tert-butyl-N8-(pyridin-2-yl)-9H-purine-2,8-diamine]", "values": [{"measurement": "IC50", "setting": "[1]", "result": "< 0.15", "unit": "µM"}, {"measurement": "IC50", "setting": "[2]", "result": "0.35 to 0.5", "unit": "µM"}]}, {"compound": "CC1(Nc2ncc3nc(Nc4ccccn4)n(C4CCC(CN)CC4)c3n2)CCOCC1", "note": "(centres unmarked) [A-8, 9-((1s,4s)-4-(aminomethyl)cyclohexyl)-N2-(4-methyltetrahydro-2H-pyran-4-yl)-N8-(pyridin-2-yl)-9H-purine-2,8-diamine]", "values": [{"measurement": "IC50", "setting": "[1]", "result": "0.15 to 0.35", "unit": "µM"}, {"measurement": "IC50", "setting": "[2]", "result": "0.35 to 0.5", "unit": "µM"}]}, {"compound": "CC1(Nc2ncc3nc(Nc4cccc(F)c4F)n(C4CCC(CN)CC4)c3n2)CCOCC1", "note": "(centres unmarked) [A-9, 9-((1s,4s)-4-(aminomethyl)cyclohexyl)-N8-(2,3-difluorophenyl)-N2-(4-methyltetrahydro-2H-pyran-4-yl)-9H-purine-2,8-diamine]", "values": [{"measurement": "IC50", "setting": "[1]", "result": "< 0.15", "unit": "µM"}, {"measurement": "IC50", "setting": "[2]", "result": "< 0.15", "unit": "µM"}]}, {"compound": "CC1(Nc2ncc3nc(Nc4cccc(Cl)c4)n(C4CCC(O)CC4)c3n2)CCCC1", "note": "(centres unmarked) [A-10, (1s,4s)-4-(8-(3-chlorophenylamino)-2-(1-methylcyclopentylamino)-9H-purin-9-yl)cyclohexanol]", "values": [{"measurement": "IC50", "setting": "[1]", "result": "0.35 to 0.5", "unit": "µM"}, {"measurement": "IC50", "setting": "[2]", "result": "0.35 to 0.5", "unit": "µM"}]}, {"compound": "CC1(Nc2ncc3nc(Nc4cccc(C(F)(F)F)c4)n(C4CCC(CN)CC4)c3n2)CCCC1", "note": "(centres unmarked) [A-12, 9-((1s,4s)-4-(aminomethyl)cyclohexyl)-N2-(1-methylcyclopentyl)-N8-(3-(trifluoromethyl)phenyl)-9H-purine-2,8-diamine]", "values": [{"measurement": "IC50", "setting": "[1]", "result": "0.15 to 0.35", "unit": "µM"}, {"measurement": "IC50", "setting": "[2]", "result": "0.35 to 0.5", "unit": "µM"}]}, {"compound": "COC(=O)NC[C@H]1CC[C@@H](n2c(Nc3cccc(Cl)c3)nc3cnc(NC4(C)CCOCC4)nc32)CC1", "note": "[A-14, methyl ((1s,4s)-4-(8-(3-chlorophenylamino)-2-(4-methyltetrahydro-2H-pyran-4-ylamino)-9H-purin-9-yl)cyclohexyl)methylcarbamate]", "values": [{"measurement": "IC50", "setting": "[1]", "result": "0.35 to 0.5", "unit": "µM"}, {"measurement": "IC50", "setting": "[2]", "result": "0.15 to 0.35", "unit": "µM"}]}, {"compound": "CC(C)(C)Nc1ncc2nc(Nc3cccc(C(F)(F)F)c3)n([C@H]3CC[C@@H](CN)CC3)c2n1", "note": "[A-15, 9-((1s,4s)-4-(aminomethyl)cyclohexyl)-N2-tert-butyl-N8-(3-(trifluoromethyl)phenyl)-9H-purine-2,8-diamine]", "values": [{"measurement": "IC50", "setting": "[1]", "result": "< 0.15", "unit": "µM"}, {"measurement": "IC50", "setting": "[2]", "result": "< 0.15", "unit": "µM"}]}, {"compound": "CC1(Nc2ncc3nc(Nc4ccc(C(F)(F)F)cc4)n(C4CCC(CN)CC4)c3n2)CCCC1", "note": "(centres unmarked) [A-16, 9-((1s,4s)-4-(aminomethyl)cyclohexyl)-N2-(1-methylcyclopentyl)-N8-(4-(trifluoromethyl)phenyl)-9H-purine-2,8-diamine]", "values": [{"measurement": "IC50", "setting": "[1]", "result": "0.35 to 0.5", "unit": "µM"}, {"measurement": "IC50", "setting": "[2]", "result": "0.35 to 0.5", "unit": "µM"}]}, {"compound": "CC(C)(C)Nc1ncc2nc(Nc3cccc(C(F)(F)F)c3)n([C@H]3CC[C@H](CN)CC3)c2n1", "note": "[A-17, 9-((1r,4r)-4-(aminomethyl)cyclohexyl)-N2-tert-butyl-N8-(3-(trifluoromethyl)phenyl)-9H-purine-2,8-diamine]", "values": [{"measurement": "IC50", "setting": "[1]", "result": "< 0.15", "unit": "µM"}, {"measurement": "IC50", "setting": "[2]", "result": "< 0.15", "unit": "µM"}]}, {"compound": "Cc1ccc(Nc2nc3cnc(NC(C)(C)C)nc3n2C2CCC(CN)CC2)cc1", "note": "(centres unmarked) [A-18, 9-((1r,4r)-4-(aminomethyl)cyclohexyl)-N2-tert-butyl-N8-p-tolyl-9H-purine-2,8-diamine]", "values": [{"measurement": "IC50", "setting": "[1]", "result": "0.15 to 0.35", "unit": "µM"}, {"measurement": "IC50", "setting": "[2]", "result": "0.35 to 0.5", "unit": "µM"}]}, {"compound": "CC1(Nc2ncc3nc(Nc4cccc(Cl)c4)n([C@H]4CC[C@@H](CO)CC4)c3n2)CCOCC1", "note": "[A-19, ((1s,4s)-4-(8-(3-chlorophenylamino)-2-(4-methyltetrahydro-2H-pyran-4-ylamino)-9H-purin-9-yl)cyclohexyl)methanol]", "values": [{"measurement": "IC50", "setting": "[1]", "result": "0.15 to 0.35", "unit": "µM"}, {"measurement": "IC50", "setting": "[2]", "result": "0.35 to 0.5", "unit": "µM"}]}, {"compound": "CC1(Nc2ncc3nc(Nc4cccc(Cl)c4)n([C@@H]4CCC[C@H](CN)C4)c3n2)CCOCC1", "note": "[A-20, 9-((1R,3S)-3-(aminomethyl)cyclohexyl)-N8-(3-chlorophenyl)-N2-(4-methyltetrahydro-2H-pyran-4-yl)-9H-purine-2,8-diamine]", "values": [{"measurement": "IC50", "setting": "[1]", "result": "< 0.15", "unit": "µM"}, {"measurement": "IC50", "setting": "[2]", "result": "0.35 to 0.5", "unit": "µM"}]}, {"compound": "CNC[C@H]1CC[C@@H](n2c(Nc3cccc(Cl)c3)nc3cnc(NC4(C)CCOCC4)nc32)CC1", "note": "[A-21, N8-(3-chlorophenyl)-9-((1s,4s)-4-((methylamino)methyl)cyclohexyl)-N2-(4-methyltetrahydro-2H-pyran-4-yl)-9H-purine-2,8-diamine]", "values": [{"measurement": "IC50", "setting": "[1]", "result": "< 0.15", "unit": "µM"}, {"measurement": "IC50", "setting": "[2]", "result": "< 0.15", "unit": "µM"}]}, {"compound": "CC(C)(C)Nc1ncc2nc(Nc3ccc(C(F)(F)F)cc3)n([C@H]3CC[C@@H](CN)CC3)c2n1", "note": "[A-22, 9-((1s,4s)-4-(aminomethyl)cyclohexyl)-N2-tert-butyl-N8-(4-(trifluoromethyl)phenyl)-9H-purine-2,8-diamine]", "values": [{"measurement": "IC50", "setting": "[1]", "result": "0.35 to 0.5", "unit": "µM"}, {"measurement": "IC50", "setting": "[2]", "result": "0.15 to 0.35", "unit": "µM"}]}, {"compound": "CCC(C)(C)Nc1ncc2nc(Nc3ccc(C(F)(F)F)cc3)n([C@H]3CC[C@@H](CN)CC3)c2n1", "note": "[A-23, 9-((1s,4s)-4-(aminomethyl)cyclohexyl)-N2-tert-pentyl-N8-(4-(trifluoromethyl)phenyl)-9H-purine-2,8-diamine]", "values": [{"measurement": "IC50", "setting": "[1]", "result": "0.35 to 0.5", "unit": "µM"}, {"measurement": "IC50", "setting": "[2]", "result": "0.35 to 0.5", "unit": "µM"}]}, {"compound": "CC1(Nc2ncc3nc(Nc4cccc(C(F)(F)F)c4)n(C4CCC(C#N)CC4)c3n2)CCOCC1", "note": "(centres unmarked) [A-24, (1s,4s)-4-(2-(4-methyltetrahydro-2H-pyran-4-ylamino)-8-(3-(trifluoromethyl)phenylamino)-9H-purin-9-yl)cyclohexanecarbonitrile]", "values": [{"measurement": "IC50", "setting": "[1]", "result": "0.15 to 0.35", "unit": "µM"}, {"measurement": "IC50", "setting": "[2]", "result": "0.15 to 0.35", "unit": "µM"}]}, {"compound": "CC(=O)NC1CCC(n2c(Nc3cccc(Cl)c3)nc3cnc(NC4(C)CCOCC4)nc32)CC1", "note": "(centres unmarked) [A-25, N-((1s,4s)-4-(8-(3-chlorophenylamino)-2-(4-methyltetrahydro-2H-pyran-4-ylamino)-9H-purin-9-yl)cyclohexyl)acetamide]", "values": [{"measurement": "IC50", "setting": "[1]", "result": "< 0.15", "unit": "µM"}, {"measurement": "IC50", "setting": "[2]", "result": "0.35 to 0.5", "unit": "µM"}]}, {"compound": "CC1(Nc2ncc3nc(Nc4cccc(Cl)c4)n([C@H]4CC[C@H](CO)CC4)c3n2)CCOCC1", "note": "[A-26, ((1r,4r)-4-(8-(3-chlorophenylamino)-2-(4-methyltetrahydro-2H-pyran-4-ylamino)-9H-purin-9-yl)cyclohexyl)methanol]", "values": [{"measurement": "IC50", "setting": "[1]", "result": "< 0.15", "unit": "µM"}, {"measurement": "IC50", "setting": "[2]", "result": "0.15 to 0.35", "unit": "µM"}]}, {"compound": "CC1(Nc2ncc3nc(Nc4cccc(Cl)c4)n([C@H]4CC[C@@H](N)CC4)c3n2)CCOCC1", "note": "[A-27, 9-((1s,4s)-4-aminocyclohexyl)-N8-(3-chlorophenyl)-N2-(4-methyltetrahydro-2H-pyran-4-yl)-9H-purine-2,8-diamine]", "values": [{"measurement": "IC50", "setting": "[1]", "result": "< 0.15", "unit": "µM"}, {"measurement": "IC50", "setting": "[2]", "result": "< 0.15", "unit": "µM"}]}, {"compound": "CC1(Nc2ncc3nc(Nc4cccc(C(F)(F)F)c4)n(C4CCC(CN)CC4)c3n2)CCC1", "note": "(centres unmarked) [A-57, 9-((1s,4s)-4-(aminomethyl)cyclohexyl)-N2-(1-methylcyclobutyl)-N8-(3-(trifluoromethyl)phenyl)-9H-purine-2,8-diamine]", "values": [{"measurement": "IC50", "setting": "[2]", "result": "< 0.15", "unit": "µM"}]}, {"compound": "NCC1CCC(n2c(Nc3cccc(Cl)c3F)nc3cnc(NC4CCOCC4)nc32)CC1", "note": "(centres unmarked) [B-13, 9-((1s,4s)-4-(aminomethyl)cyclohexyl)-N8-(3-chloro-2-fluorophenyl)-N2-(tetrahydro-2H-pyran-4-yl)-9H-purine-2,8-diamine]", "values": [{"measurement": "IC50", "setting": "[2]", "result": "< 0.15", "unit": "µM"}]}]}
